Results from patent US20250302822A1, “COMPOSITION FOR ENHANCING ANTICANCER EFFECT OF MEK INHIBITOR COMPRISING ARIPIPRAZOLE AS ACTIVE INGREDIENT” (KOREA INSTITUTE OF RADIOLOGICAL & MEDICAL SCIENCES, priority 2022, published 2025).

Legend:
[1] = tested on: PUMA; assay: PUMA protein expression in COLO 205 cells via Western blot; type: cell-based; conditions: eight hours after treatment, Western blot (FIG. 1)
Method: (§1) To identify an effect of aripiprazole on the expression of NOXA and PUMA proteins in cancer cells, COLO 205 cells were treated with aripiprazole. Eight hours later, proteins were extracted from cells after washing with PBS, and a level of NOXA and PUMA expression was checked via Western blot.

[2] = tested on: NOXA; assay: NOXA protein expression in COLO 205 cells via Western blot; type: cell-based; conditions: eight hours after treatment, Western blot (FIG. 1)
Method: as §1

O=C1CCc2ccc(OCCCCN3CCN(c4cccc(Cl)c4Cl)CC3)cc2N1 [aripiprazole]
expression of PUMA protein [1]: increased
expression of NOXA protein [2]: increased
